This passage reports Ki results from patent US8729113B2 (Hoffmann-La Roche Inc., priority 2008, dated 2014).

Each structure is given as a SMILES string.

Sequence of TAAR1 (Q923Y8 whole entry): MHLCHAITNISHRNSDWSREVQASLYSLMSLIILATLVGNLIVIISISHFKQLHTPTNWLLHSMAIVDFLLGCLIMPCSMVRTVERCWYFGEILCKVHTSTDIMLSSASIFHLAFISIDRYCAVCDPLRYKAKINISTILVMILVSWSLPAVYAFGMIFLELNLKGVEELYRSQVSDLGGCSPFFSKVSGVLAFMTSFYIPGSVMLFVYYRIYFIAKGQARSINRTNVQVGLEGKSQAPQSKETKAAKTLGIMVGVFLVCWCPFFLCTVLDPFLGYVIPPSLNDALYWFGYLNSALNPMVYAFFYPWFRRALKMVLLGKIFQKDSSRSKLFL

The test concerns the target TAAR1 (Mus musculus (Mouse), UniProt Q923Y8). As to the kind of experiment: Radioligand binding assay on TAAR1 (membranes of stably transfected HEK293 cells). The note with it: competition with [3H]-rac-2-(1,2,3,4-tetrahydro-1-naphthyl)-2-imidazoline, 4° C., 30 min. How it is done: For the construction of expression plasmids the coding sequences of human, rat and mouse TAAR 1 were amplified from genomic DNA essentially as described by Lindemann et al.. The Expand High Fidelity PCR System (Roche Diagnostics) was used with 1.5 mM Mg^2+ and purified PCR products were cloned into pCR2.1—TOPO cloning vector (Invitrogen) following the instructions of the manufacturer. PCR products were subcloned into the pIRESneo2 vector (BD Clontech, Palo Alto, Calif.), and expression vectors were sequence verified before introduction in cell lines.
HEK293 cells (ATCC # CRL-1573) were cultured essentially as described Lindemann et al. (2005). For the generation of stably transfected cell lines HEK293 cells were transfected with the pIRESneo2 expression plasmids containing the TAAR coding sequences (described above) with Lipofectamine 2000 (Invitrogen) according to the instructions of the manufacturer, and 24 hrs post transfection the culture medium was supplemented with 1 mg/ml G418 (Sigma, Buchs, Switzerland). After a culture period of about 10 d clones were isolated, expanded and tested for responsiveness to trace amines (all compounds purchased from Sigma) with the cAMP Biotrak Enzyme immunoassay (EIA) System (Amersham) following the non-acetylation EIA procedure provided by the manufacturer. […] Membrane Preparation and Radioligand Binding
Cells at confluence were rinsed with ice-cold phosphate buffered saline without Ca^2+ and Mg^2+ containing 10 mM EDTA and pelleted by centrifugation at 1000 rpm for 5 min at 4° C. The pellet was then washed twice with ice-cold phosphate buffered saline and cell pellet was frozen immediately by immersion in liquid nitrogen and stored until use at −80° C. Cell pellet was then suspended in 20 ml HEPES-NaOH (20 mM), pH 7.4 containing 10 mM EDTA, and homogenized with a Polytron (PT 3000, Kinematica) at 10,000 rpm for 10 s. The homogenate was centrifuged at 48,000×g for 30 min at 4° C. and the pellet resuspended in 20 ml HEPES-NaOH (20 mM), pH 7.4 containing 0.1 mM EDTA (buffer A), and homogenized with a Polytron at 10,000 rpm for 10 s. The homogenate was then centrifuged at 48,000×g for 30 min at 4° C. and the pellet resuspended in 20 ml buffer A, and homogenized with a Polytron at 10,000 rpm for 10 s. Protein concentration was determined by the method of Pierce (Rockford, Ill.). The homogenate was then centrifuged at 48,000×g for 10 min at 4° C., resuspended in HEPES-NaOH (20 mM), pH 7.0 including MgCl2 (10 mM) and […] homogenized with a Polytron at 10,000 rpm for 10 s.
Binding assay was performed at 4° C. in a final volume of 1 ml, and with an incubation time of 30 min. The radioligand [^3H]-rac-2-(1,2,3,4-tetrahydro-1-naphthyl)-2-imidazoline was used at a concentration equal to the calculated Kd value of 60 nM to give a bound at around 0.1% of the total added radioligand concentration, and a specific binding which represented approximately 70-80% of the total binding. Non-specific binding was defined as the amount of [^3H]-rac-2-(1,2,3,4-tetrahydro-1-naphthyl)-2-imidazoline bound in the presence of the appropriate unlabelled ligand (10 μM). Competing ligands were tested in a wide range of concentrations […]. […] Each experiment was performed in duplicate. All incubations were terminated by rapid filtration through UniFilter-96 plates (Packard Instrument Company) and glass filter GF/C, pre-soaked for at least 2 h in polyethylenimine 0.3%, and using a Filtermate 96 Cell Harvester (Packard Instrument Company). The tubes and filters were then washed 3 times with 1 ml aliquots of cold buffer B. Filters were not dried and soaked in Ultima gold (45 μl/well, Packard Instrument Company) and bound radioactivity was counted by a TopCount Microplate Scintillation Counter (Packard Instrument Company).
For orientation: Ki means a dissociation constant, usually derived from enzyme kinetics or from competition with a known ligand. Higher therefore signals lower affinity. In turn, `CC[C@@H](C[C@H]1COC(N)=N1)Oc1ccc(F)c(F)c1` [Example 119, (S)-4-[(S)-2-(3,4-Difluoro-phenoxy)-butyl]-4,5-dihydro-oxazol-2-ylamine] came in with a Ki of 0.0017 µM.
On to `CC[C@@H](C[C@H]1COC(N)=N1)Oc1ccc2ccccc2c1` [Example 153, (S)-4-[(S)-2-(Naphthalen-2-yloxy)-butyl]-4,5-dihydro-oxazol-2-ylamine], for which the Ki amounted to 0.0011 µM. This Ki lies about 1.5-fold lower than the previous one.
For `CC[C@@H](C[C@H]1COC(N)=N1)Oc1ccc(Br)cc1` [Example 111, (S)-4-[(S)-2-(4-Bromo-phenoxy)-butyl]-4,5-dihydro-oxazol-2-ylamine], the affinity, expressed as Ki, was 0.001 µM.
For `CC(CC[C@H]1COC(N)=N1)c1ccccc1` (stereo partly drawn) [Example 13, (4S)-4-(3-Phenyl-butyl)-4,5-dihydro-oxazol-2-ylamine], the Ki is 0.0073 µM.
Compound `NC1=N[C@@H](CCC2(c3ccc(Cl)cc3)CC2)CO1` [Example 30, (S)-4-{2-[1-(4-Chloro-phenyl)-cyclopropyl]-ethyl}-4,5-dihydro-oxazol-2-ylamine] had a Ki of 0.0004 µM.
In the case of `NC1=N[C@@H](CCOc2ccc(Cc3ccccc3)cc2)CO1` [Example 47, (S)-4-[2-(4-Benzyl-phenoxy)-ethyl]-4,5-dihydro-oxazol-2-ylamine], the affinity, expressed as Ki, was 0.0048 µM.
Then `NC1=N[C@@H](CCCCc2ccccc2)CO1` [Example 172, (S)-4-(4-Phenyl-butyl)-4,5-dihydro-oxazol-2-ylamine], with 0.0015 µM.
On to `C[C@@H](C[C@H]1COC(N)=N1)Oc1ccc(Cl)c(F)c1` [Example 70, (S)-4-[(S)-2-(4-Chloro-3-fluoro-phenoxy)-propyl]-4,5-dihydro-oxazol-2-ylamine], for which the affinity, expressed as Ki, was 0.0036 µM. This Ki is about 2.4-fold higher than that of the compound before.
As for `CC(CC[C@H]1COC(N)=N1)c1ccc(F)cc1` (stereo partly drawn) [Example 17, (4S)-4-[3-(4-Fluoro-phenyl)-butyl]-4,5-dihydro-oxazol-2-ylamine], the affinity corresponds to a Ki of 0.0012 µM.
As to `CC[C@@H](C[C@H]1COC(N)=N1)Oc1ccc(Cl)cc1` [Example 107, (S)-4-[(S)-2-(4-Chloro-phenoxy)-butyl]-4,5-dihydro-oxazol-2-ylamine], the Ki stood at 0.001 µM. This Ki and that of the compound before are within 1.5-fold of each other.
Take `CC(C)(CC[C@H]1COC(N)=N1)c1ccc(Cl)cc1` [Example 26, (S)-4-[3-(4-Chloro-phenyl)-3-methyl-butyl]-4,5-dihydro-oxazol-2-ylamine]: the Ki was found to be 0.0007 µM.
`C[Si](C)(CC[C@H]1COC(N)=N1)c1ccc(Cl)cc1` [Example 67, (S)-4-{2-[(4-Chloro-phenyl)-dimethyl-silanyl]-ethyl}-4,5-dihydro-oxazol-2-ylamine] displayed a Ki of 0.0046 µM.
`C[C@H](C[C@H]1COC(N)=N1)Oc1ccc(F)c(Cl)c1` [Example 85, (S)-4-[(R)-2-(3-Chloro-4-fluoro-phenoxy)-propyl]-4,5-dihydro-oxazol-2-ylamine] yielded a Ki of 0.0059 µM.
Regarding `COc1cccc(OCC[C@H]2COC(N)=N2)c1` [Example 20, (S)-4-[2-(3-Methoxy-phenoxy)-ethyl]-4,5-dihydro-oxazol-2-ylamine], the affinity corresponds to a Ki of 0.0025 µM.
Then `N#Cc1cccc(OCC[C@H]2COC(N)=N2)c1` [Example 63, 3-[2-((S)-2-Amino-4,5-dihydro-oxazol-4-yl)-ethoxy]-benzonitrile], with 0.001 µM; and `NC1=N[C@@H](CCOc2ccccc2)CO1` [Example 1, (S)-4-(2-Phenoxy-ethyl)-4,5-dihydro-oxazol-2-ylamine], with 0.0017 µM.
In turn, `C[C@@H](C[C@H]1COC(N)=N1)Oc1ccc(Cl)cc1F` [Example 73, (S)-4-[(S)-2-(4-Chloro-2-fluoro-phenoxy)-propyl]-4,5-dihydro-oxazol-2-ylamine] displayed a Ki of 0.0021 µM.
In turn, `NC1=N[C@@H](CCOc2cccc(OCc3ccccc3)c2)CO1` [Example 34, (S)-4-[2-(3-Benzyloxy-phenoxy)-ethyl]-4,5-dihydro-oxazol-2-ylamine] had a Ki of 0.0008 µM. This Ki lies about 2.6-fold lower than the previous one.
With `NC1=N[C@@H](CCOc2cccc(Br)c2)CO1` [Example 35, (S)-4-[2-(3-Bromo-phenoxy)-ethyl]-4,5-dihydro-oxazol-2-ylamine], the affinity corresponds to a Ki of 0.0001 µM. Compared with the last compound, the Ki is about 8-fold lower.
